Experiments:
[1] = previously shown; cited from earlier work
mouse hot plate test = test: Hot plate test for antinociception (55° C.); format: in vivo; details: 90 min before test
Experimental: In the hot plate test for analgesia an aluminum surface was maintained at 55±1° C. by circulating water through passages in the metal. A clear plastic cylinder 18 cm in diameter and 26 cm high was placed on the surface to prevent escape. The end point was taken when the mouse either performed a hind paw lick or jumped off the surface; in no case were the animals kept for more than 30 secs on the plate. Mice were never used more than one time; control values were always measured at 11 a.m. and test values at 2 p.m. The drugs were administered orally 90 min before the hot plate test. The percent change in response time (latency) was calculated by comparing the mean of the control values with the mean of the test values and statistical signficance determined by a paired tetest analysis using software (Statview, 512) from Brainpower, Inc., Calabasas, Calif.

forebrain ischemia = test: Protection against forebrain ischemia (unilateral occlusion); format: in vivo; details: mongolian gerbils, result in words
Text: (§1) The present compounds are active in several tests generally used to indicate neuroprotection.

[2] = test system: N-methyl-D-aspartate (NMDA) induced lethality; test: Protection against NMDA induced lethality; format: in vivo, Balb/c male mice; details: drug 10 mg/kg, 90 min before NMDA
Experimental: as §1
(§2) Balb/c male mice were administered with the drug 90 min before treatment with NMDA (125 mq/kg) or 120 min before picrotoxin (8 mg/kg) in emulsion, s.c. The survival rate shown in Table VI indicates number of survivors out of total number of animals used.

[3] = test system: Picrotoxin induced lethality; test: Protection against picrotoxin induced lethality; format: in vivo, Balb/c male mice; details: drug 10 mg/kg, 120 min before picrotoxin (8 mg/kg)
Experimental: as §1, §2

peritoneal leukocytes = test: Leukocyte adhesion assay (peritoneal cells after oral dosing); format: in vivo, female CD-1 mice; details: cells collected 90 min after dosing; for number of adhering cells: ± S.D
Experimental: Leukocytes are thought to be major contributors to the inflammatory response and their ability in this regard is reflected by their adhesiveness to a variety of substrates [Audette, C. A., et al., ibid.] Sci., 47, 753 (1990)].
The details of the leukocytes adhesion assay have been previously reported [Audette et al., ibid.]. In brief, peritoneal cells from female CD-1 mice (20-25 g) were collected at 90 min following oral administration of the drug or vehicle (50 μl peanut oil). Cells from each treatment group (N=3) were pooled and equal numbers aliquoted into six culture dish wells (1.9 cm^2 area). After incubation for 18-20 hours, non-adhering cells were removed and the remaining cell monolayer quantitated by DNA measurement.

PAF-Induced Paw Edema = test: Inhibition of PAF-induced paw edema; format: in vivo, CD-1 female mice; details: for Inhibition of PAF-Induced Paw Edema: vs vehicle treated controls, 15 min after PAF
Experimental: A second model, in which edema is induced by platelet activating factor (PAF), was used to evaluate activity.
(§3) The conditions were based on those reported previously [Calhoun et al., ibid.]. […] PAF (1.0 μq) or arachidonic acid (1.0 mg) dissolved in 50 μl of 5% ethanol in saline, were injected s.c. into the plantar surface of the right hind paw of CD-1 female mice (20-25 g) obtained from Charles River Labs. The mice were under ether anesthesia during this procedure. The volume of the right foot was measured to the level of the lateral malleotis by water displacement before treatment and 15 min after PAF injection or 30 min after archidonate injection. The change in paw volume was calculated for each mouse and the significance for each group was determined by a paired t test analysis.

cataleptic response = test: Cataleptic effects, ring test; format: in vivo, mouse; details: 5 min test period, ± SD
Experimental: The lack of CNS activity for the compounds described herein may be seen from the data shown in Table V. This was measured by the so-called "ring test" [Pertwee, R. G., et al., J. Pharmacol., 46, 753 (1972)] in which the cataleptic effects of cannabinoids can be quantitated. The compounds produced little or no response when compared with the parent drug.
The cataleptic response was measured using the ring test. Mice were placed on a horizontal wire ring 5.5 cm in diameter, which was attached to a 16 cm vertical rod. The hind paws and fore paws were placed at opposite sides of the ring. It is important that the ambient temperature is maintained at 30° C. and that the environment be free of auditory stimuli and bright lights. The criteria for immobility are detailed by Pertwee. The response is calculated as the fraction of time the mouse is immobile over a 5 min. test period. Measurements were always done between 2 and 4 p.m. and the animals were used only once.

[4] = test system: Arachidonic Acid-Induced Paw Edema; test: Inhibition of arachidonic acid-induced paw edema; format: in vivo, CD-1 female mice
Text: The induction of paw edema in rodents by injection of arachidonic acid has been used as an experimental model for inflammation [Calhoun, W., et al., Agents and Actions, 21, 306 (1987)]. Prior administration of non-steroidalanti-inflammatory drugs (NSAIDs) in many cases leads to a dose related inhibition of the edematous response which may be considered a predictor of clinical efficacy.
as §3

intraocular pressure = test: Reduction of intraocular pressure (anti-glaucoma); format: in vivo, rabbits; details: 50 μl drop of a 1% emulsion into rabbit eye
Experimental: Reduction of intraocular pressure in rabbits was determined by the addition of a 50 μl drop of a 1% emulsion of the cannabinoid into the rabbit eye. This test is a measure of anti-glaucoma activity.

Compound	analgetic activity [1]	percent change in latency (mouse hot plate test; 0.25 mg/kg oral)	percent change in latency (mouse hot plate test; 0.50 mg/kg oral)	percent change in latency (mouse hot plate test; 1.0 mg/kg oral)	protection against forebrain ischemia (forebrain ischemia)	Survival rate (survivors out of total) [2]	Survival rate (survivors out of total) [3]	adhering cells, percent of control (peritoneal leukocytes; 0.05 mg/kg oral)	number of adhering cells (peritoneal leukocytes; 0.05 mg/kg oral)	adhering cells, percent of control (peritoneal leukocytes; 0.10 mg/kg oral)	number of adhering cells (peritoneal leukocytes; 0.10 mg/kg oral)	adhering cells, percent of control (peritoneal leukocytes; 0.50 mg/kg oral)	number of adhering cells (peritoneal leukocytes; 0.50 mg/kg oral)	adhering cells, percent of control (peritoneal leukocytes; 1.00 mg/kg oral)	number of adhering cells (peritoneal leukocytes; 1.00 mg/kg oral)	Inhibition of PAF-Induced Paw Edema (PAF-Induced Paw Edema; 0.5 mg/kg)	Inhibition of PAF-Induced Paw Edema (PAF-Induced Paw Edema; 1.0 mg/kg)	further results
CCCCCCC(C)(C)c1cc(O)c2c(c1)OC(C)(C)[C@H]1CC=C(CO)C[C@H]21 [HU-211, 7-hydroxy-delta-6-tetrahydrocannabinoldimethylheptyl, reference compound]	analgetic	30.0%	72.5%	-10.2%	shown to protect against forebrain ischemia	11/16	6/10	124% of control	1.09 ± 0.08 number of adhering cells × 10^-6	50% of control	0.44 ± 0.03 number of adhering cells × 10^-6	73% of control	0.64 ± 0.06 number of adhering cells × 10^-6	67% of control	0.59 ± 0.06 number of adhering cells × 10^-6	37.5%	21.9%	anti-NMDA activity [1]: anti-NMDA; antiemetic activity [1]: entiemetic
THC-7-oic Acid [reference compound]																		adhering cells, percent of control (peritoneal leukocytes; 20 mg/kg oral): 90.6% of control; number of adhering cells (peritoneal leukocytes; 20 mg/kg oral): 0.67 ± 0.02 number of adhering cells × 10^-6; adhering cells, percent of control (peritoneal leukocytes; 40 mg/kg oral): 67.9% of control; number of adhering cells (peritoneal leukocytes; 40 mg/kg oral): 0.55 ± 0.22 number of adhering cells × 10^-6
CCCCCc1cc(O)c2c(c1)OC(C)(C)[C@@H]1CCC(C(=O)O)=C[C@@H]21 [Compound 2, (3R,4R)-delta-1-tetrahydrocannabinol-7-oic acid]	analgetic																	antiinflammatory activity [1]: antiinflammatory; psychotropic effects [1]: no psychotropic effects
CCCCCCC(C)(C)c1cc(O)c2c(c1)OC(C)(C)[C@H]1CC=C(C(=O)O)C[C@H]21 [HU-235]		61.5%	61.5%	51.7%	shown to protect against forebrain ischemia	7/10	8/12	102% of control	1.29 ± 0.05 number of adhering cells × 10^-6	110% of control	1.38 ± 0.17 number of adhering cells × 10^-6	116% of control	1.46 ± 0.05 number of adhering cells × 10^-6	56% of control	0.70 ± 0.12 number of adhering cells × 10^-6	60.1%		cataleptic response (fraction of time immobile) (cataleptic response; 0.25 mg/kg): 12.3 ± 10.3; cataleptic response (fraction of time immobile) (cataleptic response; 0.5 mg/kg): 13.8 ± 7.9; cataleptic response (fraction of time immobile) (cataleptic response; 1.0 mg/kg): 10.4 ± 10.6; cataleptic response (fraction of time immobile) (cataleptic response; 4.0 mg/kg): 8.7 ± 5.6; percent change in latency (mouse hot plate test; 0.02 mg/kg oral): 10.3%; percent change in latency (mouse hot plate test; 0.05 mg/kg oral): 61.7%; percent change in latency (mouse hot plate test; 0.10 mg/kg oral): 49.5%; percent change in latency (mouse hot plate test; 2.0 mg/kg oral): 14.7%; adhering cells, percent of control (peritoneal leukocytes; 0.01 mg/kg oral): 106% of control; number of adhering cells (peritoneal leukocytes; 0.01 mg/kg oral): 1.34 ± 0.14 number of adhering cells × 10^-6; Inhibition of Arachidonic Acid-Induced Paw Edema ([4]; 0.050 mg/kg, vs vehicle treated controls, 30 min after arachidonate): 42.1%; reduction of arachidonic acid paw edema ([4]; result in words): effective in reducing paw edema; Inhibition of PAF-Induced Paw Edema (PAF-Induced Paw Edema; 0.05 mg/kg): 44.4%; Inhibition of PAF-Induced Paw Edema (PAF-Induced Paw Edema; 0.10 mg/kg): 38.7%; Inhibition of PAF-Induced Paw Edema (PAF-Induced Paw Edema; 0.25 mg/kg): 31.9%; activity in PAF-induced edema (PAF-Induced Paw Edema; result in words): active; reduction of intraocular pressure (intraocular pressure): Significant reduction
CCCCCc1cc(O)c2c(c1)OC(C)(C)[C@@H]1CC=C(C(=O)O)C[C@@H]21 [Δ^6 -THC-7-oic acid, reference compound]																N.S.	N.S.	Inhibition of PAF-Induced Paw Edema (PAF-Induced Paw Edema; 40.0 mg/kg): 50.2%
CCCCCc1cc(O)c2c(c1)OC(C)(C)[C@@H]1CCC(C)=C[C@@H]21 [Δ^1 -THC, (3R,4R)-delta-1-tetrahydrocannabinol, reference compound]																		cataleptic response (fraction of time immobile) (cataleptic response; 40 mg/kg): 48.9 ± 16
